# Test system: LPS-induced TNF-α release in peripheral blood mononuclear cells (PBMCs)
# Assay: In vitro determination of PDE4 inhibitory activity in the PBMCs assay (LPS-induced TNF-α release)
# Type: cell-based, human
# Settings: PBMC; human PBMCs, LPS 3 ng/ml, 18 hours, TNF-α by ELISA; read-out: PDE4 inhibition (IC50, 50% inhibition of LPS-induced TNF-α release)
# Method in brief: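 Cryopreserved human PBMCs (10^5 cells/well) pre-incubated 30 min with compound (10^−12 to 10^−6 M or 10^−3 to 10^−7 M), then stimulated with LPS 3 ng/ml for 18 h at 37 °C. TNF-α in medium by ELISA; IC50 as mean ± 95% confidence limits.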
row,Compound,IC50
1,"COc1ccc(S(=O)(=O)N2CCCC[C@H]2C(=O)O[C@@H](Cc2c(Cl)c[n+]([O-])cc2Cl)c2ccc(OC(F)F)c(OCC3CC3)c2)cc1OC [Compound 98, 3,5-dichloro-4-((S)-2-(3-(cyclopropylmethoxy)-4-(difluoromethoxy)phenyl)-2-((S)-1-(3,4-dimethoxyphenylsulfonyl)piperidine-2-carbonyloxy)ethyl)pyridine 1-oxide]",100 to 1000 pM
2,"O=C(O[C@@H](Cc1c(Cl)c[n+]([O-])cc1Cl)c1ccc(OC(F)F)c(OCC2CC2)c1)[C@@H]1CCCCN1S(=O)(=O)c1cccnc1 [Compound 99, 3,5-dichloro-4-((S)-2-(3-(cyclopropylmethoxy)-4-(difluoromethoxy)phenyl)-2-((S)-1-(pyridin-3-ylsulfonyl)piperidine-2-carbonyloxy)ethyl)pyridine 1-oxide]",1000 to 10000 pM
3,"COC(=O)c1ccc(S(=O)(=O)N2CCS[C@H]2C(=O)O[C@@H](Cc2c(Cl)c[n+]([O-])cc2Cl)c2ccc(OC(F)F)c(OCC3CC3)c2)cc1 [Compound 100, 3,5-dichloro-4-((S)-2-(3-(cyclopropylmethoxy)-4-(difluoromethoxy)phenyl)-2-((S)-3-(4-(methoxycarbonyl)phenylsulfonyl)thiazolidine-2-carbonyloxy)ethyl)pyridine 1-oxide]",1000 to 10000 pM
4,"COC(=O)c1ccccc1S(=O)(=O)N1CCS[C@H]1C(=O)O[C@@H](Cc1c(Cl)c[n+]([O-])cc1Cl)c1ccc(OC(F)F)c(OCC2CC2)c1 [Compound 101, 3,5-dichloro-4-((S)-2-(3-(cyclopropylmethoxy)-4-(difluoromethoxy)phenyl)-2-((S)-3-(2-(methoxycarbonyl)phenylsulfonyl)thiazolidine-2-carbonyloxy)ethyl)pyridine 1-oxide]",< 100 pM
5,"COc1cccc(S(=O)(=O)N2CCS[C@H]2C(=O)O[C@@H](Cc2c(Cl)c[n+]([O-])cc2Cl)c2ccc(OC(F)F)c(OCC3CC3)c2)c1 [Compound 103, 3,5-dichloro-4-((S)-2-(3-(cyclopropylmethoxy)-4-(difluoromethoxy)phenyl)-2-((S)-3-(3-methoxyphenylsulfonyl)thiazolidine-2-carbonyloxy)ethyl)pyridine 1-oxide]",100 to 1000 pM
6,"O=C(O[C@@H](Cc1c(Cl)c[n+]([O-])cc1Cl)c1ccc(OC(F)F)c(OCC2CC2)c1)[C@@H]1SCCN1S(=O)(=O)c1cccc(OC(F)(F)F)c1 [Compound 104, 3,5-dichloro-4-((S)-2-(3-(cyclopropylmethoxy)-4-(difluoromethoxy)phenyl)-2-((S)-3-(3-(trifluoromethoxy)phenylsulfonyl)thiazolidine-2-carbonyloxy)ethyl)pyridine 1-oxide]",100 to 1000 pM
7,"O=C(O[C@@H](Cc1c(Cl)c[n+]([O-])cc1Cl)c1ccc(OC(F)F)c(OCC2CC2)c1)[C@@H]1SCCN1S(=O)(=O)c1ccc(N2CCOCC2)nc1 [Compound 105, 3,5-dichloro-4-((S)-2-(3-(cyclopropylmethoxy)-4-(difluoromethoxy)phenyl)-2-((S)-3-(6-morpholinopyridin-3-ylsulfonyl)thiazolidine-2-carbonyloxy)ethyl)pyridine 1-oxide]",100 to 1000 pM
8,"COc1cc(C)ccc1S(=O)(=O)N1CCS[C@H]1C(=O)O[C@@H](Cc1c(Cl)c[n+]([O-])cc1Cl)c1ccc(OC(F)F)c(OCC2CC2)c1 [Compound 106, 3,5-dichloro-4-((S)-2-(3-(cyclopropylmethoxy)-4-(difluoromethoxy)phenyl)-2-((S)-3-(2-methoxy-4-methylphenylsulfonyl)thiazolidine-2-carbonyloxy)ethyl)pyridine 1-oxide]",< 100 pM
9,"Cc1nc(C)c(S(=O)(=O)N2CCS[C@H]2C(=O)O[C@@H](Cc2c(Cl)c[n+]([O-])cc2Cl)c2ccc(OC(F)F)c(OCC3CC3)c2)s1 [Compound 107, 3,5-dichloro-4-((S)-2-(3-(cyclopropylmethoxy)-4-(difluoromethoxy)phenyl)-2-((S)-3-(2,4-dimethylthiazol-5-ylsulfonyl)thiazolidine-2-carbonyloxy)ethyl)pyridine 1-oxide]",< 100 pM
10,"CN1CCOc2ccc(S(=O)(=O)N3CCS[C@H]3C(=O)O[C@@H](Cc3c(Cl)c[n+]([O-])cc3Cl)c3ccc(OC(F)F)c(OCC4CC4)c3)cc21 [Compound 108, 3,5-dichloro-4-((S)-2-(3-(cyclopropylmethoxy)-4-(difluoromethoxy)phenyl)-2-((S)-3-(4-methyl-3,4-dihydro-2H-benzo[b][1,4]oxazin-6-ylsulfonyl)thiazolidine-2-carbonyloxy)ethyl)pyridine 1-oxide]",100 to 1000 pM
11,"CS(=O)(=O)c1ccc(S(=O)(=O)N2CCS[C@H]2C(=O)O[C@@H](Cc2c(Cl)c[n+]([O-])cc2Cl)c2ccc(OC(F)F)c(OCC3CC3)c2)cc1 [Compound 109, 3,5-dichloro-4-((S)-2-(3-(cyclopropylmethoxy)-4-(difluoromethoxy)phenyl)-2-((S)-3-(4-(methylsulfonyl)phenylsulfonyl)thiazolidine-2-carbonyloxy)ethyl)pyridine 1-oxide]",< 100 pM
12,"COc1ccc(S(=O)(=O)N2CCS[C@H]2C(=O)O[C@@H](Cc2c(Cl)c[n+]([O-])cc2Cl)c2ccc(OC(F)F)c(OCC3CC3)c2)cc1 [Compound 110, 3,5-dichloro-4-((S)-2-(3-(cyclopropylmethoxy)-4-(difluoromethoxy)phenyl)-2-((S)-3-(4-methoxyphenylsulfonyl)thiazolidine-2-carbonyloxy)ethyl)pyridine 1-oxide]",100 to 1000 pM
13,"O=C(O[C@@H](Cc1c(Cl)c[n+]([O-])cc1Cl)c1ccc(OC(F)F)c(OCC2CC2)c1)[C@@H]1CCCCN1S(=O)(=O)c1ccc(N2CCOCC2)nc1 [Compound 111, 3,5-dichloro-4-((S)-2-(3-(cyclopropylmethoxy)-4-(difluoromethoxy)phenyl)-2-((S)-1-(6-morpholinopyridin-3-ylsulfonyl)piperidine-2-carbonyloxy)ethyl)pyridine 1-oxide]",100 to 1000 pM
14,"CN(C)S(=O)(=O)c1cccc(S(=O)(=O)N2CCCC[C@H]2C(=O)O[C@@H](Cc2c(Cl)c[n+]([O-])cc2Cl)c2ccc(OC(F)F)c(OCC3CC3)c2)c1 [Compound 113, 3,5-dichloro-4-((S)-2-(3-(cyclopropylmethoxy)-4-(difluoromethoxy)phenyl)-2-((S)-1-(3-(N,N-dimethylsulfamoyl)phenylsulfonyl)piperidine-2-carbonyloxy)ethyl)pyridine 1-oxide]",< 100 pM
15,"O=C(O[C@@H](Cc1c(Cl)c[n+]([O-])cc1Cl)c1ccc(OC(F)F)c(OCC2CC2)c1)[C@@H]1CCCCN1S(=O)(=O)c1ccccc1 [Compound 114, 3,5-dichloro-4-((S)-2-(3-(cyclopropylmethoxy)-4-(difluoromethoxy)phenyl)-2-((S)-1-(phenylsulfonyl)piperidine-2-carbonyloxy)ethyl)pyridine 1-oxide]",100 to 1000 pM
16,"COc1ccc(OC)c(S(=O)(=O)N2CCS[C@H]2C(=O)O[C@@H](Cc2c(Cl)c[n+]([O-])cc2Cl)c2ccc(OC(F)F)c(OCC3CC3)c2)c1 [Compound 115, 3,5-dichloro-4-((S)-2-(3-(cyclopropylmethoxy)-4-(difluoromethoxy)phenyl)-2-((S)-3-(2,5-dimethoxyphenylsulfonyl)thiazolidine-2-carbonyloxy)ethyl)pyridine 1-oxide]",< 100 pM
17,"Cn1ccnc1S(=O)(=O)N1CCCC[C@H]1C(=O)O[C@@H](Cc1c(Cl)c[n+]([O-])cc1Cl)c1ccc(OC(F)F)c(OCC2CC2)c1 [Compound 116, 3,5-dichloro-4-((S)-2-(3-(cyclopropylmethoxy)-4-(difluoromethoxy)phenyl)-2-((S)-1-(1-methyl-1H-imidazol-2-ylsulfonyl)piperidine-2-carbonyloxy)ethyl)pyridine 1-oxide]",< 100 pM
18,"CC(=O)c1cccc(S(=O)(=O)N2CCS[C@H]2C(=O)O[C@@H](Cc2c(Cl)c[n+]([O-])cc2Cl)c2ccc(OC(F)F)c(OCC3CC3)c2)c1 [Compound 117, 4-((S)-2-((S)-3-(3-acetylphenylsulfonyl)thiazolidine-2-carbonyloxy)-2-(3-(cyclopropylmethoxy)-4-(difluoromethoxy)phenyl)ethyl)-3,5-dichloropyridine 1-oxide]",100 to 1000 pM
19,"CNS(=O)(=O)c1cccc(S(=O)(=O)N2CCSC2C(=O)O[C@@H](Cc2c(Cl)c[n+]([O-])cc2Cl)c2ccc(OC(F)F)c(OCC3CC3)c2)c1 (stereo partly drawn) [Compound 118, 3,5-dichloro-4-((2S)-2-(3-(cyclopropylmethoxy)-4-(difluoromethoxy)phenyl)-2-(3-(3-(N-methylsulfamoyl)phenylsulfonyl)thiazolidine-2-carbonyloxy)ethyl)pyridine 1-oxide]",< 100 pM
20,"Cn1cnc(S(=O)(=O)N2CCS[C@H]2C(=O)O[C@@H](Cc2c(Cl)c[n+]([O-])cc2Cl)c2ccc(OC(F)F)c(OCC3CC3)c2)c1 [Compound 119, 3,5-dichloro-4-((S)-2-(3-(cyclopropylmethoxy)-4-(difluoromethoxy)phenyl)-2-((S)-3-(1-methyl-1H-imidazol-4-ylsulfonyl)thiazolidine-2-carbonyloxy)ethyl)pyridine 1-oxide]",< 100 pM
21,"CN(C)C(=O)c1cccc(S(=O)(=O)N2CCN(CC(=O)O[C@@H](Cc3c(Cl)c[n+]([O-])cc3Cl)c3ccc(OC(F)F)c(OCC4CC4)c3)CC2)c1 [Compound 121, (S)-3,5-dichloro-4-(2-(3-(cyclopropylmethoxy)-4-(difluoromethoxy)phenyl)-2-(2-(4-(3-(dimethylcarbamoyl)phenylsulfonyl)piperazin-1-yl)acetoxy)ethyl)pyridine 1-oxide]",100 to 1000 pM
22,"COc1ccc(S(=O)(=O)N2CCSC2C(=O)O[C@@H](Cc2c(Cl)c[n+]([O-])cc2Cl)c2ccc(OC(F)F)c(OCC3CC3)c2)cc1C(=O)N(C)C (stereo partly drawn) [Compound 123, 3,5-dichloro-4-((2S)-2-(3-(cyclopropylmethoxy)-4-(difluoromethoxy)phenyl)-2-(3-(3-(dimethylcarbamoyl)-4-methoxyphenylsulfonyl)thiazolidine-2-carbonyloxy)ethyl)pyridine 1-oxide]",< 100 pM

# — patent publication US9931327B2, “Derivatives of 1-phenyl-2-pyridinyl alkyl alcohols as phosphodiesterase inhibitors” (Chiesi Farmaceutici S.p.A., priority 2011, dated 2018)
